Test results taken from PMC6240093, “Identification of Two Mannosyltransferases Contributing to Biosynthesis of the Fungal-type Galactomannan α-Core-Mannan Structure in Aspergillus fumigatus” (Scientific Reports, 2018).

Molecular target: T1, CmsA (Aspergillus fumigatus, UniProt B0Y2F5)
T1 construct: gene AFUB_051270; catalytic domain residues 27-397 (N-terminal TM removed)
Assay: HPLC (UV300) of product with p-nitrophenyl alpha-D-mannopyranoside as acceptor
Format: biochemical
Settings: donor 1.5 mM; p-nitrophenyl alpha-D-mannopyranoside 1.5 mM; 1.5 mM MnCl2; pH 7.0; 37 °C

T1 sequence (B0Y2F5 entry or part of it): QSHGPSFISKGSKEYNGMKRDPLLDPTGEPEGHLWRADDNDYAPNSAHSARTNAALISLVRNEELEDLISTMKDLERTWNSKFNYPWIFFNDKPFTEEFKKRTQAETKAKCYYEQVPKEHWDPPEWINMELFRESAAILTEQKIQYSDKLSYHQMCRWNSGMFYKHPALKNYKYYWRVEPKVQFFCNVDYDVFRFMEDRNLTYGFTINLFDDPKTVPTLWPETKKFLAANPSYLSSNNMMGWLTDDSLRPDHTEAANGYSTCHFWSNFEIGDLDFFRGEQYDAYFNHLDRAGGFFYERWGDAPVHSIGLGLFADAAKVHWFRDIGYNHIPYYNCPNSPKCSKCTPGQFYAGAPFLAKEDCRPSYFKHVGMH

## Nc1nc2c(ncn2[C@@H]2O[C@H](COP(=O)(O)OP(=O)(O)O[C@H]3O[C@H](CO)[C@@H](O)[C@H](O)[C@@H]3O)[C@@H](O)[C@H]2O)c(=O)[nH]1 [GDP-Man]
  HPLC (UV300) of product with p-nitrophenyl alpha-D-mannopyranoside as acceptor: CmsA has GDP-Man: α-mannoside α-1,2-mannosyltransferase activity in vitro
